Patent publication EP0908457B1, “3-(1,2-benzisothiazol- and isoxazol-5-Y1)-2,4(1H,3H)-pyrimidinedione or thione and 3-(1,2-benzisothiazol- and isoxazol-5-y1)-4(3H)-pyrimidinone or thione herbicidal agents” (BASF AKTIENGESELLSCHAFT, priority 1997, dated 1999)

Columns and labels:
[1] = tested on: Echinochloa oryzoides (Ard.) Fritsch.; assay: Preemergence weed control under flooded paddy conditions, ECHORC (Watergrass (Calif.)); assay type: in vivo; further: meaning of each grade not given here
[2] = tested on: Echinochloa oryzoides (Ard.) Fritsch.; assay: Postemergence weed control under flooded paddy conditions, ECHORC (Watergrass (Calif.)); assay type: in vivo; settings: rated three to four weeks after treatment
[3] = tested on: Monochoria vaginalis, Presl.; assay: Postemergence weed control under flooded paddy conditions, MOOVA (Monochoria); assay type: in vivo; settings: rated three to four weeks after treatment
Sagittaria pygmaea, L. [4] = assay: Postemergence weed control under flooded paddy conditions, SAGPY (Arrowhead (Pygmaea)); assay type: in vivo; settings: rated three to four weeks after treatment
[5] = tested on: Cyperus serotinus, Rottb.; assay: Postemergence weed control under flooded paddy conditions, CYPSE (Flatsedge); assay type: in vivo; settings: rated three to four weeks after treatment
Cyperus iria [6] = assay: Postemergence weed control under flooded paddy conditions, CYPIR (Rice Flatsedge); assay type: in vivo; settings: rated three to four weeks after treatment
[7] = tested on: Monochoria vaginalis, Presl.; assay: Preemergence weed control under flooded paddy conditions, MOOVA (Monochoria); assay type: in vivo; further: meaning of each grade not given here
[8] = tested on: Oryza sativa, (L.) Tebonnet; assay: Rice tolerance to post-transplant applications under flooded paddy conditions (Example 188), ORYSAT (Rice, Tebonnet); settings: rated three to four weeks after treatment
Cyperus iria [9] = assay: Preemergence weed control under flooded paddy conditions, CYPIR (Rice Flatsedge); assay type: in vivo; further: meaning of each grade not given here
[10] = tested on: Oryza sativa, (L.) Tebonnet; assay: Rice tolerance to post-transplant applications under flooded paddy conditions (Example 187), ORYSAT (Rice, Tebonnet); settings: rated three to four weeks after treatment; further: meaning of each grade not given here
[11] = tested on: Cyperus serotinus, Rottb.; assay: Preemergence weed control under flooded paddy conditions, CYPSE (Flatsedge); assay type: in vivo; settings: preemergence, rated three to four weeks after treatment; further: meaning of each grade not given here
Sagittaria pygmaea, L. [12] = assay: Preemergence weed control under flooded paddy conditions, SAGPY (Arrowhead (Pygmaea)); assay type: in vivo; settings: preemergence, flooded paddy, rated three to four weeks after treatment; further: meaning of each grade not given here
[13] = Rate 0.0320 kg/ha, preemergence, flooded paddy, rated three to four weeks after treatment
[14] = Rate 0.0620 kg/ha, preemergence, flooded paddy, rated three to four weeks after treatment
[15] = Rate 0.1250 kg/ha, preemergence, flooded paddy, rated three to four weeks after treatment
[16] = Rate 0.2500 kg/ha, preemergence, flooded paddy, rated three to four weeks after treatment

COC(=O)C(C)Oc1ccc(C)cc1-c1nsc2ccc(-n3c(=O)cc(C(F)(F)F)n(C)c3=O)cc12 (stereo not drawn) [Example 3, Methyl 2-{{2-{5-[3,6-dihydro-3-methyl-4-(trifluoromethyl)-2,6-dioxo-1(2H)-pyrimidinyl]-1,2-benzisothiazol-3-yl}-p-tolyl}oxy}propionate]
herbicidal effect rating, ECHORC ([1]; in vivo): 9.0 | herbicidal effect rating, ECHORC ([2]; Rate 0.0313 kg/ha): 0.0 | herbicidal effect rating, ECHORC ([2]; Rate 0.0625 kg/ha): 0.0 | herbicidal effect rating, ECHORC ([2]; Rate 0.1250 kg/ha): 0.0 | herbicidal effect rating, ECHORC ([2]; Rate 0.2500 kg/ha): 2.0 | herbicidal effect rating, ECHORC ([2]; Rate 0.5000 kg/ha): 4.0 | herbicidal effect rating, MOOVA ([3]; Rate 0.0313 kg/ha): 9.0 | herbicidal effect rating, MOOVA ([3]; Rate 0.0625 kg/ha): 9.0 | herbicidal effect rating, MOOVA ([3]; Rate 0.1250 kg/ha): 9.0 | herbicidal effect rating, MOOVA ([3]; Rate 0.2500 kg/ha): 9.0 | herbicidal effect rating, MOOVA ([3]; Rate 0.5000 kg/ha): 9.0 | herbicidal effect rating, SAGPY (Sagittaria pygmaea, L. [4]; Rate 0.0313 kg/ha): 0.0 | herbicidal effect rating, SAGPY (Sagittaria pygmaea, L. [4]; Rate 0.0625 kg/ha): 0.0 | herbicidal effect rating, SAGPY (Sagittaria pygmaea, L. [4]; Rate 0.1250 kg/ha): 0.0 | herbicidal effect rating, SAGPY (Sagittaria pygmaea, L. [4]; Rate 0.2500 kg/ha): 0.0 | herbicidal effect rating, SAGPY (Sagittaria pygmaea, L. [4]; Rate 0.5000 kg/ha): 0.0 | herbicidal effect rating, CYPSE ([5]; Rate 0.0313 kg/ha): 0.0 | herbicidal effect rating, CYPSE ([5]; Rate 0.0625 kg/ha): 0.0 | herbicidal effect rating, CYPSE ([5]; Rate 0.1250 kg/ha): 0.0 | herbicidal effect rating, CYPSE ([5]; Rate 0.2500 kg/ha): 0.0 | herbicidal effect rating, CYPSE ([5]; Rate 0.5000 kg/ha): 0.0 | herbicidal effect rating, CYPIR (Cyperus iria [6]; Rate 0.0313 kg/ha): 9.0 | herbicidal effect rating, CYPIR (Cyperus iria [6]; Rate 0.0625 kg/ha): 9.0 | herbicidal effect rating, CYPIR (Cyperus iria [6]; Rate 0.1250 kg/ha): 9.0 | herbicidal effect rating, CYPIR (Cyperus iria [6]; Rate 0.2500 kg/ha): 9.0 | herbicidal effect rating, CYPIR (Cyperus iria [6]; Rate 0.5000 kg/ha): 9.0 | herbicidal effect rating, MOOVA ([7]; in vivo): 9.0 | herbicidal effect rating, ORYSAT (rice tolerance) ([8]; Rate 0.0313 kg/ha): 2.0 | herbicidal effect rating, ORYSAT (rice tolerance) ([8]; Rate 0.0625 kg/ha): 2.0 | herbicidal effect rating, ORYSAT (rice tolerance) ([8]; Rate 0.1250 kg/ha): 3.0 | herbicidal effect rating, ORYSAT (rice tolerance) ([8]; Rate 0.2500 kg/ha): 3.0 | herbicidal effect rating, ORYSAT (rice tolerance) ([8]; Rate 0.5000 kg/ha): 3.0 | herbicidal effect rating, CYPIR (Cyperus iria [9]; in vivo): 9.0

Cn1c(C(F)(F)F)cc(=O)n(-c2ccc3snc(C(C#N)=Cc4ccc[nH]4)c3c2)c1=O [Example 598, 1,2-Benzisothiazole-3-acetonitrile, 5-[3,6-dihydro-3-methyl-2,6-dioxo-4-(trifluoromethyl)-1(2H)-pyrimidinyl]-alpha-(pyrrol-2-ylmethylene)-]
herbicidal effect rating, ECHORC [1, 13]: 0.0 | herbicidal effect rating, ECHORC [1, 14]: 0.0 | herbicidal effect rating, ECHORC [1, 15]: 0.0 | herbicidal effect rating, ECHORC [1, 16]: 0.0 | herbicidal effect rating ORYSAT ([10]; Rate 0.0320 kg/ha): 0.0 | herbicidal effect rating ORYSAT ([10]; Rate 0.0620 kg/ha): 0.0 | herbicidal effect rating ORYSAT ([10]; Rate 0.1250 kg/ha): 3.0 | herbicidal effect rating ORYSAT ([10]; Rate 0.2500 kg/ha): 3.0 | herbicidal effect rating, CYPSE ([11]; Rate 0.0320 kg/ha): 0.0 | herbicidal effect rating, CYPSE ([11]; Rate 0.2500 kg/ha): 0.0 | herbicidal effect rating, MOOVA [7, 15]: 7.0 | herbicidal effect rating, MOOVA [7, 16]: 7.0 | herbicidal effect rating, CYPIR (Cyperus iria [9]; [13]): 0.0 | herbicidal effect rating, CYPIR (Cyperus iria [9]; [14]): 0.0 | herbicidal effect rating, CYPIR (Cyperus iria [9]; [15]): 2.0 | herbicidal effect rating, CYPIR (Cyperus iria [9]; [16]): 3.0 | herbicidal effect rating, SAGPY (Sagittaria pygmaea, L. [12]; Rate 0.0320 kg/ha): 0.0 | herbicidal effect rating, SAGPY (Sagittaria pygmaea, L. [12]; Rate 0.0620 kg/ha): 0.0 | herbicidal effect rating, SAGPY (Sagittaria pygmaea, L. [12]; Rate 0.1250 kg/ha): 0.0 | herbicidal effect rating, SAGPY (Sagittaria pygmaea, L. [12]; Rate 0.2500 kg/ha): 0.0

COc1ccccc1C=C(C#N)c1nsc2ccc(-n3c(=O)cc(C(F)(F)F)n(C)c3=O)cc12 [Example 599, 1,2-Benzisothiazole-3-acetonitrile, 5-[3,6-dihydro-3-methyl-2,6-dioxo-4-(trifluoromethyl)-1(2H)-pyrimidinyl]-alpha-(o-methoxybenzylidene)-]
herbicidal effect rating, ECHORC [1, 13]: 0.0 | herbicidal effect rating, ECHORC [1, 14]: 0.0 | herbicidal effect rating, ECHORC [1, 15]: 0.0 | herbicidal effect rating, ECHORC [1, 16]: 4.0 | herbicidal effect rating ORYSAT ([10]; Rate 0.0320 kg/ha): 2.0 | herbicidal effect rating ORYSAT ([10]; Rate 0.0620 kg/ha): 3.0 | herbicidal effect rating ORYSAT ([10]; Rate 0.1250 kg/ha): 3.0 | herbicidal effect rating ORYSAT ([10]; Rate 0.2500 kg/ha): 5.0 | herbicidal effect rating, CYPSE ([11]; Rate 0.0620 kg/ha): 0.0 | herbicidal effect rating, CYPSE ([11]; Rate 0.2500 kg/ha): 0.0 | herbicidal effect rating, MOOVA [7, 13]: 6.0 | herbicidal effect rating, MOOVA [7, 14]: 7.0 | herbicidal effect rating, MOOVA [7, 16]: 7.0 | herbicidal effect rating, CYPIR (Cyperus iria [9]; [13]): 0.0 | herbicidal effect rating, CYPIR (Cyperus iria [9]; [14]): 0.0 | herbicidal effect rating, CYPIR (Cyperus iria [9]; [16]): 3.0 | herbicidal effect rating, SAGPY (Sagittaria pygmaea, L. [12]; Rate 0.0320 kg/ha): 0.0 | herbicidal effect rating, SAGPY (Sagittaria pygmaea, L. [12]; Rate 0.0620 kg/ha): 0.0 | herbicidal effect rating, SAGPY (Sagittaria pygmaea, L. [12]; Rate 0.1250 kg/ha): 0.0 | herbicidal effect rating, SAGPY (Sagittaria pygmaea, L. [12]; Rate 0.2500 kg/ha): 0.0

Cn1c(C(F)(F)F)cc(=O)n(-c2ccc3snc(C(C#N)=Cc4ccc(O)cc4)c3c2)c1=O [Example 600, 1,2-Benzisothiazole-3-acetonitrile, 5-[3,6-dihydro-3-methyl-2,6-dioxo-4-(trifluoromethyl)-1(2H)-pyrimidinyl]-alpha-(p-hydroxybenzylidene)-]
herbicidal effect rating, ECHORC [1, 13]: 0.0 | herbicidal effect rating, ECHORC [1, 14]: 0.0 | herbicidal effect rating, ECHORC [1, 15]: 0.0 | herbicidal effect rating, ECHORC [1, 16]: 2.0 | herbicidal effect rating ORYSAT ([10]; Rate 0.0320 kg/ha): 3.0 | herbicidal effect rating ORYSAT ([10]; Rate 0.0620 kg/ha): 3.0 | herbicidal effect rating ORYSAT ([10]; Rate 0.1250 kg/ha): 4.0 | herbicidal effect rating ORYSAT ([10]; Rate 0.2500 kg/ha): 4.0 | herbicidal effect rating, CYPSE ([11]; Rate 0.0320 kg/ha): 0.0 | herbicidal effect rating, CYPSE ([11]; Rate 0.0620 kg/ha): 0.0 | herbicidal effect rating, CYPSE ([11]; Rate 0.2500 kg/ha): 0.0 | herbicidal effect rating, MOOVA [7, 13]: 6.0 | herbicidal effect rating, MOOVA [7, 14]: 6.0 | herbicidal effect rating, MOOVA [7, 15]: 7.0 | herbicidal effect rating, MOOVA [7, 16]: 7.0 | herbicidal effect rating, CYPIR (Cyperus iria [9]; [13]): 0.0 | herbicidal effect rating, CYPIR (Cyperus iria [9]; [14]): 0.0 | herbicidal effect rating, CYPIR (Cyperus iria [9]; [15]): 0.0 | herbicidal effect rating, CYPIR (Cyperus iria [9]; [16]): 2.0 | herbicidal effect rating, SAGPY (Sagittaria pygmaea, L. [12]; Rate 0.0320 kg/ha): 0.0 | herbicidal effect rating, SAGPY (Sagittaria pygmaea, L. [12]; Rate 0.0620 kg/ha): 0.0 | herbicidal effect rating, SAGPY (Sagittaria pygmaea, L. [12]; Rate 0.1250 kg/ha): 0.0 | herbicidal effect rating, SAGPY (Sagittaria pygmaea, L. [12]; Rate 0.2500 kg/ha): 0.0

Cn1c(C(F)(F)F)cc(=O)n(-c2ccc3snc(C(C#N)=Cc4cc5ccccc5[nH]4)c3c2)c1=O [Example 601, 1,2-Benzisothiazole-3-acetonitrile, 5-[3,6-dihydro-3-methyl-2,6-dioxo-4-(trifluoromethyl)-1(2H)-pyrimidinyl]-alpha-(indol-2-ylmethylene)-]
herbicidal effect rating, ECHORC [1, 13]: 0.0 | herbicidal effect rating, ECHORC [1, 14]: 0.0 | herbicidal effect rating, ECHORC [1, 15]: 2.0 | herbicidal effect rating, ECHORC [1, 16]: 6.0 | herbicidal effect rating ORYSAT ([10]; Rate 0.0320 kg/ha): 4.0 | herbicidal effect rating ORYSAT ([10]; Rate 0.0620 kg/ha): 5.0 | herbicidal effect rating ORYSAT ([10]; Rate 0.1250 kg/ha): 6.0 | herbicidal effect rating ORYSAT ([10]; Rate 0.2500 kg/ha): 7.0 | herbicidal effect rating, CYPSE ([11]; Rate 0.0320 kg/ha): 0.0 | herbicidal effect rating, CYPSE ([11]; Rate 0.0620 kg/ha): 0.0 | herbicidal effect rating, CYPSE ([11]; Rate 0.1250 kg/ha): 0.0 | herbicidal effect rating, CYPSE ([11]; Rate 0.2500 kg/ha): 3.0 | herbicidal effect rating, MOOVA [7, 13]: 6.0 | herbicidal effect rating, MOOVA [7, 14]: 7.0 | herbicidal effect rating, MOOVA [7, 15]: 9.0 | herbicidal effect rating, MOOVA [7, 16]: 9.0 | herbicidal effect rating, CYPIR (Cyperus iria [9]; [13]): 0.0 | herbicidal effect rating, CYPIR (Cyperus iria [9]; [14]): 0.0 | herbicidal effect rating, CYPIR (Cyperus iria [9]; [15]): 4.0 | herbicidal effect rating, CYPIR (Cyperus iria [9]; [16]): 4.0 | herbicidal effect rating, SAGPY (Sagittaria pygmaea, L. [12]; Rate 0.0320 kg/ha): 0.0 | herbicidal effect rating, SAGPY (Sagittaria pygmaea, L. [12]; Rate 0.0620 kg/ha): 0.0 | herbicidal effect rating, SAGPY (Sagittaria pygmaea, L. [12]; Rate 0.1250 kg/ha): 0.0 | herbicidal effect rating, SAGPY (Sagittaria pygmaea, L. [12]; Rate 0.2500 kg/ha): 0.0
